Data: US20250197368A1 (priority 2020, published 2025)

What was measured:
[1] = biological target: human α2β3γ2 GABAARs (benzodiazepine site) (Homo sapiens (Human), UniProt P18507+P47869); test: In vitro radioligand binding assay ([3H]Ro15-1788 displacement), α2-GABAAR Ki
Method in brief: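 Membranes from dexamethasone-induced mouse L(tk−) cells stably expressing the human receptor were incubated 1 h at 4° C with 4 nM [3H]Ro15-1788 and graded compound; nonspecific binding with 1-3 μM TP003. Filter-bound radioactivity counted; Ki from IC50 by Cheng-Prusoff using the measured radioligand Kd.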

[2] = biological target: human α3β3γ2 GABAARs (benzodiazepine site) (Homo sapiens (Human), UniProt P18507+P34903); test: In vitro radioligand binding assay ([3H]Ro15-1788 displacement), α3-GABAAR Ki; details: L(tk-) cell membranes, 4 nM [3H]Ro15-1788
Procedure: The affinity (Ki) of compounds for the benzodiazepine site of human recombinant GABAARs was measured by their ability to inhibit the binding of the selective benzodiazepine antagonist [^3H]Ro15-1788 ([^3H] flumazenil).
Mouse L(tk^−) cells stably expressing human α1β3γ2, α2β3γ2, α3β3γ2, α5β3γ2 GABAARs were generated by transfection of the individual subunits in the dexamethasone-inducible expression vector pMSGneo in mouse L(tk^−) cells (Hadingham et al., 1993, Mol. Pharmacol. 43:970-975 and 1993, Mol. Pharmacol. 44:1211-1218).
L(tk^−) cells stably expressing human α1β3γ2, α2β3γ2, α3β3γ2, α5β3γ2 GABAARs were maintained in DMEM F12 medium supplemented with 10% Foetal Bovine Serum, 1% Penicillin/Streptomycin and 1 mg/mL Geneticin G418 in an incubator at 37° C. with a humidified atmosphere with 5% CO2. Dexamethasone was added to the culture medium to induce GABAAR expression.
L(tk−) cells were harvested and membranes were prepared for each receptor combination in either TE buffer (10 mM Tris·CI/0.1 mM EDTA, pH 7.5) or phosphate buffer (K2PO4 10 mM, pH 7.0) (Hadingham et al. (1992) Proc. Natl. Acad. Sci. USA; 89 (14): 6378-82). Protein concentration, receptor expression and the Kd of [^3H]Ro15-1788 were determined before Ki value of the compounds were evaluated. For Kd evaluation, saturation binding curves were obtained by incubating membrane with various concentrations of [^3H]Ro15-1788 (82.5 Ci/mM), with nonspecific binding measured in the presence of 1-3 μM TP003.
For Ki evaluation, cell membranes were incubated with 4 nM [^3H]Ro15-1788 along with a range of concentrations of test compound. Nonspecific binding was determined using 1-3 μM TP003. All incubations were performed for 1 hour at 4° C. in assay buffer. The total assay volume was 0.5 mL, containing 40 μg/well α1β3γ2, 30 μg/well α2β3γ2, 40 μg/well α3β3γ2 and 30 μg/well for α5β3γ2 of membrane protein. Incubations were terminated by filtration and washing with ice cold Tris-HCl buffer (50 mM, pH=7.4) over Whatman GF/B filters and the radioactivity of the filters was measured using liquid scintillation counting.
The % inhibition of [^3H]Ro15-1788 binding was plotted as a function of compound concentration and the IC50 calculated. From the IC50, the affinity (Ki) was calculated using the method of Cheng and Prusoff using the Kd values obtained for [^3H]Ro15-1788.

human α2β3γ2 GABAARs = test: In vitro electrophysiological recording assay (automated patch-clamp), α2-GABAAR relative efficacy; format: cell-based; details: % efficacy normalised to diazepam; GABA EC10-20; concentration generally >= 100 times Ki
Method in brief: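 Automated whole-cell patch clamp at 20-22° C on L(tk^−) cells (QPatch, −65 mV) or HEK293 cells (SyncroPatch, −80 mV) stably expressing the human receptor. Compound pre-applied ≥1 min, then co-applied with GABA EC10-20; % potentiation of leak-corrected peak current, normalised to diazepam, typically at ≥100× Ki.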

human α3β3γ2 GABAARs = test: In vitro electrophysiological recording assay (automated patch-clamp), α3-GABAAR relative efficacy; format: cell-based; details: % efficacy normalised to diazepam; GABA EC10-20; concentration generally >= 100 times Ki
Procedure: The efficacy of modulators was evaluated using the automated patch-clamp platforms QPatch16 (Sophion, Copenhagen, Denmark) or SyncroPatch 384PE (Nanion, Germany).
For QPatch electrophysiology testing L(tk^−) cells stably expressing human α1β3γ2, α2β3γ2, α3β3γ2, α5β3γ2 GABAARs were used. HEK293 cells stably expressing human α1β3γ2L, α2β3γ2L, α3β3γ2L and α5β3γ2L GABAARs were used for the SyncroPatch 384PE experiments.
All experiments were carried out at room temperature (20-22° C.) using a standard whole cell procedure and physiological solutions. Gigaseals were formed upon execution of a combined suction/voltage protocol with subsequent increased suction leading to the whole-cell configuration.
The currents recorded were acquired at either 1 KHz or 2 KHz and filtered using a Bessel filter. Whole-cell currents were measured at a holding potential of-65 mV (QPatch) or −80 mV (SyncroPatch).
For QPatch experiments, the extracellular solution contained of: 145 mM NaCl, 4 mM KCl, 1 mM MgCl2, 2 mM CaCl2), 10 mM HEPES, 10 mM D-glucose (pH 7.4), and the intracellular solution consisted of: 96 mM KCl, 28 mM CsCl, 25 mM KOH, 4.3 mM CaCl2), 1.4 mM MgCl2, 10 mM EGTA, 10 mM HEPES, 3 mM MgATP (pH 7.2). The osmolarities of the extracellular and intracellular solutions were 305 and 295 mOsm respectively.
For SyncroPatch experiments, the extracellular recording solution contained: 140 mM NaCl, 4 mM KCl, 2 mM CaCl2), 1 mM MgCl2, 10 mM HEPES, 5 mM glucose (pH 7.4 with NaOH and osmolarity of c. 300-310 mOsm). The intracellular recording solution consisted of: 90 mM KCl, 50 mM KF, 1.5 mM MgCl2, 11.1 mM EGTA and 10 mM HEPES (pH 7.2 with KOH and osmolarity of c. 300 mOsm). 2 mM of NaATP was added to the intracellular solution on the day of testing.
The effects of modulators were evaluated in the presence of a submaximal GABA concentration, giving typically less than 30% activation of the response elicited by a saturating GABA concentration. To check and ensure baseline current stability before compound addition, two to five consecutive applications of GABA EC10-20 separated by wash steps were performed before compound addition. The test compound was applied 1 min at least prior to co-application with GABA EC10-20. Following a further wash step, a saturating concentration of GABA was applied at the end of each recording, allowing the accurate evaluation for each cell of the percentage baseline activation elicited by the submaximal GABA applied.
The compounds were first dissolved in DMSO as a 10 mM stock and then further diluted to the testing concentrations so that the final DMSO concentration in the extracellular recording solution was 0.1% (QPatch) or 0.2% (SyncroPatch).
The % efficacy of modulators was determined from the GABA elicited currents recorded in the presence and absence of the test compound, using the formula:
[((compound peak current−leak)−(GABA peak current-leak))/(GABA peak current−leak)]*100,
where ‘leak’ is the leak baseline current at the holding potential, ‘compound peak current’ is the current elicited by co-application of compound and GABA, and ‘GABA peak current’ is the current elicited by GABA alone at the last GABA application before compound addition. The results were presented as ‘relative efficacy’ for each compound generally at a concentration equal or higher than 100 times their determined Ki. The relative efficacy of a compound was calculated by normalising its % efficacy to the corresponding % efficacy of diazepam that was separately determined.

Chain of human α2β3γ2 GABAARs (benzodiazepine site) (P47869 29-451): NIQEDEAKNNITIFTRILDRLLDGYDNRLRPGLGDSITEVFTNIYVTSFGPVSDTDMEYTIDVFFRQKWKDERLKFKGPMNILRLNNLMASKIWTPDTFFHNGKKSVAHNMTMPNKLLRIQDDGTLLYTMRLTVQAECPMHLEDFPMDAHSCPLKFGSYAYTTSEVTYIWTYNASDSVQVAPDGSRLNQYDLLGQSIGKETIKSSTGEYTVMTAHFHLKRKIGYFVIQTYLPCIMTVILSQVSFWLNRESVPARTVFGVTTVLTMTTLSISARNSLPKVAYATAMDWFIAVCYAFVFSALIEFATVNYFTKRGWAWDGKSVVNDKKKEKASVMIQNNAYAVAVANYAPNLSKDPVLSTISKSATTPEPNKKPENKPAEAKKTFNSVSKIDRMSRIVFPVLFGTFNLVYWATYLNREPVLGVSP
Chain of human α2β3γ2 GABAARs (benzodiazepine site) (P28472 26-473 partner): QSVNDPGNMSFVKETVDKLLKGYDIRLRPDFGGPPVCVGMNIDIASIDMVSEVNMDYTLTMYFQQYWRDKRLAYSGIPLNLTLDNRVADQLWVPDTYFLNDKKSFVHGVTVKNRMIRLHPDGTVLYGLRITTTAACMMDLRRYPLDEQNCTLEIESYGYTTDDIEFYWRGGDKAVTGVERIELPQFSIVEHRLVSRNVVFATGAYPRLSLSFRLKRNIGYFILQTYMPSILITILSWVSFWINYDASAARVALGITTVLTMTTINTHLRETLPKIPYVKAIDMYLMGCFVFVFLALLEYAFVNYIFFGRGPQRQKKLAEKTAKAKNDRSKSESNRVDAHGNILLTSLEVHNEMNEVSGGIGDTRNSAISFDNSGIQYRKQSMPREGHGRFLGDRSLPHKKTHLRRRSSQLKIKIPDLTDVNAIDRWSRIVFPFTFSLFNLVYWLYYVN
Chain of human α2β3γ2 GABAARs (benzodiazepine site) (P18507 40-475): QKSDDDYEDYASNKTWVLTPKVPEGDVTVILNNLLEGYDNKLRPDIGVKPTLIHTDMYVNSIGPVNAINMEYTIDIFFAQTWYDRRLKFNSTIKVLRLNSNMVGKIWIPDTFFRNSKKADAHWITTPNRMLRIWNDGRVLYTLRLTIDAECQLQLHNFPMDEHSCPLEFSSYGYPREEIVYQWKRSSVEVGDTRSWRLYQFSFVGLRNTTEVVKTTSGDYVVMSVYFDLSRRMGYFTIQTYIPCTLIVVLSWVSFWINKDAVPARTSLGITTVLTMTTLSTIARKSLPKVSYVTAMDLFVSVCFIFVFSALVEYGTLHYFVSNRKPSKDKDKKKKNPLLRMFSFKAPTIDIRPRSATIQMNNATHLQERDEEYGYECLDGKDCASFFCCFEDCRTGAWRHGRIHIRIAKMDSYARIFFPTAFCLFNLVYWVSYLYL

| Compound | Ki [1] | Ki [2] | α2-GABAAR Relative Efficacy (vs. Diazepam) (human α2β3γ2 GABAARs) | α3-GABAAR Relative Efficacy (vs. Diazepam) (human α3β3γ2 GABAARs) |
| --- | --- | --- | --- | --- |
| CCCNC(=O)c1c(N)c2cccc(-c3cc(CN4CCC5(CCN(C)CC5)C4)ccc3F)c2[nH]c1=O [Example 143, 4-Amino-8-(2-fluoro-5-((8-methyl-2,8-diazaspiro[4.5]decan-2-yl)methyl)phenyl)-2-oxo-N-propyl-1,2-dihydroquinoline-3-carboxamide] | 1.8 nM | 10.1 nM | 0.32 | 0.11 |
| CCCNC(=O)c1c(N)c2cccc(-c3nc(CO)ccc3F)c2[nH]c1=O [Example 11, 4-Amino-8-[3-fluoro-6-(hydroxymethyl)-2-pyridyl]-2-oxo-N-propyl-1H-quinoline-3-carboxamide] | 2.13 nM | 4.38 nM | 0.32 | 0.24 |
| CCCNC(=O)c1c(N)c2cccc(-c3cc(OCc4cccc(C#N)n4)ccc3F)c2[nH]c1=O [Example 91, 4-Amino-8-(5-((6-cyanopyridin-2-yl)methoxy)-2-fluorophenyl)-2-oxo-N-propyl-1,2-dihydroquinoline-3-carboxamide] | 0.46 nM | 1.3 nM | 0.18 | 0.29 |
| CCCNC(=O)c1c(N)c2cccc(-c3cc(CN4CCN(C)CC4)ccc3F)c2[nH]c1=O [Example 137, 4-Amino-8-[2-fluoro-5-[(4-methylpiperazin-1-yl)methyl]phenyl]-2-oxo-N-propyl-1H-quinoline-3-carboxamide] | 3 nM | 8.07 nM | 0.42 | 0.53 |
| CCCNC(=O)c1c(N)c2cccc(-c3cc(CN4CCC5(CCN(C)C5)C4)ccc3F)c2[nH]c1=O (stereo not shown) [Example 142, 4-Amino-8-(2-fluoro-5-((7-methyl-2,7-diazaspiro[4.4]nonan-2-yl)methyl)phenyl)-2-oxo-N-propyl-1,2-dihydroquinoline-3-carboxamide] | 3.6 nM | 6.35 nM | 0.24 | 0.27 |
| CCCNC(=O)c1c(N)c2cccc(-c3cc(OCc4ccc(C)nc4)ccc3F)c2[nH]c1=O [Example 110, 4-Amino-8-[2-fluoro-5-[(6-methyl-3-pyridyl)methoxy]phenyl]-2-oxo-N-propyl-1H-quinoline-3-carboxamide] | 0.59 nM | 0.97 nM | 0.25 | 0.30 |
| CCCNC(=O)c1c(N)c2cccc(-c3cc(OCc4c[nH]cn4)ccc3F)c2[nH]c1=O [Example 124, 8-(5-((1H-Imidazol-4-yl)methoxy)-2-fluorophenyl)-4-amino-2-oxo-N-propyl-1,2-dihydroquinoline-3-carboxamide] | 0.98 nM | 1.55 nM | 0.28 | 0.34 |
| CCCNC(=O)c1c(N)c2cccc(-c3cc(OCc4ccc(F)cn4)ccc3F)c2[nH]c1=O [Example 92, 4-Amino-8-[2-fluoro-5-[(5-fluoro-2-pyridyl)methoxy]phenyl]-2-oxo-N-propyl-1H-quinoline-3-carboxamide] | 0.48 nM | 0.81 nM | 0.21 | 0.26 |
| CCCNC(=O)c1c(N)c2cccc(-c3nc(CN4CCN(C)CC4)ccc3F)c2[nH]c1=O [Example 138, 4-Amino-8-(3-fluoro-6-((4-methylpiperazin-1-yl)methyl)pyridin-2-yl)-2-oxo-N-propyl-1,2-dihydroquinoline-3-carboxamide] | 1.87 nM | 4.99 nM | 0.17 | 0.42 |
| COc1ccncc1-c1cccc2c(N)c(C(=O)NCCC(F)(F)F)c(=O)[nH]c12 [Example 69, 4-Amino-8-(4-methoxypyridin-3-yl)-2-oxo-N-(3,3,3-trifluoropropyl)-1,2-dihydroquinoline-3-carboxamide] | 26.5 nM | 60.5 nM | 0.6 | 0.59 |
| CCCNC(=O)c1c(N)c2cccc(-c3cc(OCc4ccccn4)ccc3F)c2[nH]c1=O [Example 85, 4-Amino-8-[2-fluoro-5-(2-pyridylmethoxy)phenyl]-2-oxo-N-propyl-1H-quinoline-3-carboxamide] | 0.3 nM | 0.7 nM | 0.32 | 0.42 |
| CCCNC(=O)c1c(N)c2cccc(-c3ccnc(CO)c3)c2[nH]c1=O [Example 32, 4-Amino-8-[2-(hydroxymethyl)-4-pyridyl]-2-oxo-N-propyl-1H-quinoline-3-carboxamide] | 3.09 nM | 6.86 nM | 0.24 | 0.29 |
| CCCNC(=O)c1c(N)c2cccc(-c3cccc(OCc4cccnc4)n3)c2[nH]c1=O [Example 111, 4-Amino-2-oxo-N-propyl-8-(6-(pyridin-3-ylmethoxy)pyridin-2-yl)-1,2-dihydroquinoline-3-carboxamide] | 0.23 nM | 0.41 nM | 0.27 | 0.47 |
